Reference: ChEMBL document CHEMBL1201862, “PubChem BioAssay data set” (2004)
Active and inactive are the calls of the source.

What was measured:
Phospholipase A2 = Phospholipase A2 (Homo sapiens, UniProt P04054); format: functional;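 also: confirmatory dose-response counterscreen on phospholipase A2, testing hits that came from an ultra-high-throughput screen for ATG4B inhibitors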
Streptococcus = test: GAS UMAA2166 growth inhibition – luminescence, BacTiterGlo, counter-screen for streptokinase expression inhibitor project, dose response (AID 1915); format: functional, organism-based;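 also: potency for reduction of bacterial viability or growth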
Cysteine protease ATG4B = Cysteine protease ATG4B (Homo sapiens, UniProt Q9Y4P1); format: functional;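 also: Fluorescence-based dose-response confirmation assay measuring inhibition of ATG4B activity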
Cysteine protease ATG4B, sequence (Q9Y4P1 whole entry): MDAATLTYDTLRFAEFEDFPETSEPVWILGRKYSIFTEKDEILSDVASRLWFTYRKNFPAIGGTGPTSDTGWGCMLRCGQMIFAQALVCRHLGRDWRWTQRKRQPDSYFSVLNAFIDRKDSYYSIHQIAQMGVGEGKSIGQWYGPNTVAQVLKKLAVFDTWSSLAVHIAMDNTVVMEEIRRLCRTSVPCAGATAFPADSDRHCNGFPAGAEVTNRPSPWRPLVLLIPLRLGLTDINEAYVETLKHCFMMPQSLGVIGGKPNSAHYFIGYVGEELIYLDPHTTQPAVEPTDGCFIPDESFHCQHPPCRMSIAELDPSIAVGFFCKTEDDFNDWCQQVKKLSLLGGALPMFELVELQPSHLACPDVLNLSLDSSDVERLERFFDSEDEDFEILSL

[1] = test system: Streptococcus sp. 'group A'; test: Streptococcus pyogenes SK(-)GAS viability under kanamycin – luminescence, BacTiterGlo, confirmation, counter-screen for streptokinase expression inhibitor project, dose response (AID 1900); format: functional, organism-based
[2] = biological target: T1, Ubiquitin-conjugating enzyme E2 N (Homo sapiens, UniProt P61088); format: functional
T1 sequence (P61088 whole entry): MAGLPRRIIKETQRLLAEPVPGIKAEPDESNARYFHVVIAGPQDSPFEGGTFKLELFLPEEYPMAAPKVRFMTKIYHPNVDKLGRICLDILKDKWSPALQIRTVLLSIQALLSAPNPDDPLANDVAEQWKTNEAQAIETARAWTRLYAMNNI

Protein RecA = biological target: T2, Protein RecA (Mycobacterium tuberculosis, UniProt P9WHJ3); test: Fluorescence Cell-Free Homogeneous Dose Retest to Identify Inhibitors of RecA-Intein Splicing Activity. [Related pubchem assays (depositor defined):AID2097, AID2223, AID489010, AID492950]; format: functional
T2 sequence (P9WHJ3 whole entry): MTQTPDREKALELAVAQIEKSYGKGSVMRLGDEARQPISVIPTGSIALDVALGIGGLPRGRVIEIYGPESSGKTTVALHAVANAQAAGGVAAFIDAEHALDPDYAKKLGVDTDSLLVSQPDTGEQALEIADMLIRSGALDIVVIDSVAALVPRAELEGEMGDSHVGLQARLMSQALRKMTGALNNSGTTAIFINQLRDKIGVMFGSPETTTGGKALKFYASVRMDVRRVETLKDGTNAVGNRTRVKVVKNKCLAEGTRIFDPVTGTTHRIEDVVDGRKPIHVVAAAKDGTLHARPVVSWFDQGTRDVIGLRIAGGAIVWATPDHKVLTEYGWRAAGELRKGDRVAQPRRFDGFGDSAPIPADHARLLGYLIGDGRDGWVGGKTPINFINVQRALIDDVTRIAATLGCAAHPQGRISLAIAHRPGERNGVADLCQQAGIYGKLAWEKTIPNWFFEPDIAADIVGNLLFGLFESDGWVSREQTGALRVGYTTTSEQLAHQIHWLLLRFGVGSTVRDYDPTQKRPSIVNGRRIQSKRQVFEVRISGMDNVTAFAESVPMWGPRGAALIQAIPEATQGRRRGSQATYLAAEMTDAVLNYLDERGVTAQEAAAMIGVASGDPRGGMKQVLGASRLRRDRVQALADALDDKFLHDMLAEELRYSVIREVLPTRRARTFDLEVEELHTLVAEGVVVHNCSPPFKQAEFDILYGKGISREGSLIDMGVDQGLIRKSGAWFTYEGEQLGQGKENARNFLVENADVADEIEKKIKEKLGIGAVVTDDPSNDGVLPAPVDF

[3] = Luminescence Cell-Based Dose Retest to Confirm Inhibitors of Cancer Stem Cells. [Related pubchem assays (depositor defined):AID2717, AID2721]; format: functional; conditions: Homo sapiens
Bcl-2-related protein A1 = biological target: T3, Bcl-2-related protein A1 (Mus musculus, UniProt Q07440); format: functional;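 also: confirmatory dose–response counterscreen on Bfl-1, used to check hits from a UBC13 polyubiquitin inhibitor campaign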
T3 sequence (Q07440 whole entry): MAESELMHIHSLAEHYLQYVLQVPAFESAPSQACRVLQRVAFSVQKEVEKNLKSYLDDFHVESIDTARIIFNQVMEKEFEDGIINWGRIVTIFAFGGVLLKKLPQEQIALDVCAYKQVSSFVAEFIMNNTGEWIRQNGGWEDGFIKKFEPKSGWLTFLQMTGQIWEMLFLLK

[4] = biological target: T1, Ubiquitin-conjugating enzyme E2 N; format: functional; remark: listed apart in the source
[5] = biological target: T4, Replicative DNA helicase DnaB (Mycobacterium tuberculosis, UniProt P9WMR3); test: DnaB intein splicing inhibitors, dose response, biochemical, cell-free fluorescence (AID 449749); format: functional
T4 sequence (P9WMR3 whole entry): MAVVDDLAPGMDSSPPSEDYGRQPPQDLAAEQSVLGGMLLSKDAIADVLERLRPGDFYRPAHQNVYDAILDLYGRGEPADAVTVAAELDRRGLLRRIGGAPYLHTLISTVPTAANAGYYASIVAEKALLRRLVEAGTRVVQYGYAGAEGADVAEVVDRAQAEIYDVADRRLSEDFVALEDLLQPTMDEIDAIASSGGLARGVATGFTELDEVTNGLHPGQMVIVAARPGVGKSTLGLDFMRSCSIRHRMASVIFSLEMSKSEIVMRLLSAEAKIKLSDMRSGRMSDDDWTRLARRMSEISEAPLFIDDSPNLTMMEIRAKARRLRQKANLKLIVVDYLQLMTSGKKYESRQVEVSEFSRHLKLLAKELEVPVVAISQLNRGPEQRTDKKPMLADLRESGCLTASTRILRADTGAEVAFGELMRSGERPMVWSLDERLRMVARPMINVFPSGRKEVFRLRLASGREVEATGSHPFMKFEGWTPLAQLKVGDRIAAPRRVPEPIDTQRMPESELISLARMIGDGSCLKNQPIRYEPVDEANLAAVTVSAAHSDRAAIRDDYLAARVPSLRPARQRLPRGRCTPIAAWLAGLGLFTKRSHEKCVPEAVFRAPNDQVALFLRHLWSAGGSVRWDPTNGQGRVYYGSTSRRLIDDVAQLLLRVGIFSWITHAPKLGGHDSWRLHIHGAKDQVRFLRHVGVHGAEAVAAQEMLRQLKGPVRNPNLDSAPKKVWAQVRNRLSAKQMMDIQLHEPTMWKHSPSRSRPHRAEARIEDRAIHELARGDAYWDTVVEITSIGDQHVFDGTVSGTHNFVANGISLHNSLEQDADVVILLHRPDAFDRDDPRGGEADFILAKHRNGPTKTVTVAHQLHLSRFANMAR

Streptokinase A = biological target: T5, Streptokinase A (Streptococcus pyogenes serotype M1, UniProt P10520); test: viability-normalized secreted streptokinase activity reduction – plasminogen activation absorbance, OD405, dose response (AID 1914); format: functional, Streptococcus pyogenes M1 GAS;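 also: secreted streptokinase activity via plasminogen activation per viability signal from cell pellet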
T5 sequence (P10520 whole entry): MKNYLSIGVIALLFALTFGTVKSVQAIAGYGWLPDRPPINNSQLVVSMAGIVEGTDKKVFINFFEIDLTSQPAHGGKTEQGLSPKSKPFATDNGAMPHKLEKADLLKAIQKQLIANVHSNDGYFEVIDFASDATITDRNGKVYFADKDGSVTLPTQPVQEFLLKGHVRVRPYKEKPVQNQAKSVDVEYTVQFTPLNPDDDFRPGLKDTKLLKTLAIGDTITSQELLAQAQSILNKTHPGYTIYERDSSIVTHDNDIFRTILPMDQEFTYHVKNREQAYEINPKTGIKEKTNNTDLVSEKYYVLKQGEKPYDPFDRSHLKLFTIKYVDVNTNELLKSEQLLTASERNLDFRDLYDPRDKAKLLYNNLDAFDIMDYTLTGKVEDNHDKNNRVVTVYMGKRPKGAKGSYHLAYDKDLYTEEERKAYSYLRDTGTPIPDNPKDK

Phospholipase A2, sequence (P04054 whole entry): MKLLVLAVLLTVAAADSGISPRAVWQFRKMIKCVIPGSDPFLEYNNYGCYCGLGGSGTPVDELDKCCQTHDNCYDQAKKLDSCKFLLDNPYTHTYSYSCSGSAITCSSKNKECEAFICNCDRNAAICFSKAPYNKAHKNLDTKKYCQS

## CCCCCCCCOC(=O)c1c(CSC(=N)N)n(C)c2cc(Br)c(OC(C)=O)cc12
Phospholipase A2
  IC50: 52.2 µM (inactive)
Streptococcus
  EC50: 8.01 µM (active)
Cysteine protease ATG4B
  IC50: 8.63 µM (active)
[1]
  EC50: 2.05 µM (active)
[2]
  IC50: 12.4 µM (active)
Protein RecA
  EC50: 1.57 µM (active)
[3]
  AC50: 2.7 µM (active)
Bcl-2-related protein A1
  IC50: > 20 µM (inactive)
[4]
  IC50: 4.22 µM (active)
[5]
  AC50: 4.36 µM (active)
Streptokinase A
  EC50: > 150 µM (not active)
